Assay results: US20190321345A1, “GLUT4 Selective Inhibitors for Cancer Therapy” (Emory University, priority 2016, published 2019)

Key:
[1] = test system: CD38+/CD45- gated myeloma cells from myeloma patient bone marrow aspirates; assay: Cell death of myeloma cells from MM patient bone marrow aspirates; format: cell-based, human
Procedure: CD38-phyocerythrin and CD45-allophycocyanin-Cy7 positive myeloma cells were evaluated for cell death.
(§1) KD of GLUT4 and glucose deprivation lead to variable suppression of the pro-survival anti-apoptotic protein MCL-1. […] Cells resistant to glucose deprivation-induced cell death increase binding of pro-apoptotic BIM to BCL-2, facilitating sensitization to the BH3 mimetic venetoclax (ABT-199). 22 Treatment of glucose-deprived resistant cells with ABT-199 releases the additional BIM bound to BCL-2, inducing apoptosis. […] Compound 20 was evaluated for sensitizing MM patient samples to ABT-199. CD38+/CD45− gated myeloma cells from myeloma patient bone marrow aspirates were evaluated for viability after 48 hrs of treatment. […] The ability of compound 20 to sensitize MM cells and induce cell death to the commonly used steroid dexamethasone (Dex) was tested. […] To rule out the cytotoxic effect of co-treatment of compound 20 with either ABT-199 or dexamethasone on other non-myeloma cell populations, cell viability of CD38−/CD45− and CD38−/CD45+ cells were analyzed within the MM patient sample bone marrow aspirate (FIG. 6G). […] Lastly, compound 20 was also found to sensitize MM.15 cells to a dose range of the alkylating agent melphalan (Mel) that was assessed in a 72 hr treatment period (FIG. 6H).

GLUT4 = target: T1, GLUT4 (Homo sapiens, UniProt P14672); assay: 2-DOG transport in HEK293 cells over-expressing GLUT4; format: cell-based; conditions: for IC50: pre-treated 5 minutes, 2-DOG uptake 4 min, cells lacking GLUT1, read-out: IC50 (inhibition of 2-DOG transport in HEK cells over-expressing GLUT isoforms) GLUT4
T1 construct: expressed in transfected cells; host or cells: HEK293 stably expressing GLUT1 shRNA
T1 sequence (P14672 1-509): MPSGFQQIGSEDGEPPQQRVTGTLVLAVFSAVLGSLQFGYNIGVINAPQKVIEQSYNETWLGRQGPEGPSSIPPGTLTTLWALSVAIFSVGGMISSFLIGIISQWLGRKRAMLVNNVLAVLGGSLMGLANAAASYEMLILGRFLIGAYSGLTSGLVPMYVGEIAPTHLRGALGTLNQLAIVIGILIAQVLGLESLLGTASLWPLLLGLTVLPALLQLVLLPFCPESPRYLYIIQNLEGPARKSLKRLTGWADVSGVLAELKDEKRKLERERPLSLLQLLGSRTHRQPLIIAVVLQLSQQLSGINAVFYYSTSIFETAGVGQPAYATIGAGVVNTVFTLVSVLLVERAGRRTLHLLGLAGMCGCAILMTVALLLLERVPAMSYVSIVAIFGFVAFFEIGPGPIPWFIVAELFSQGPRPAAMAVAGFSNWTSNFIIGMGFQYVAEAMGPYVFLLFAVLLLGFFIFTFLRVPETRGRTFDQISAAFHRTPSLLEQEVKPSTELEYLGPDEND
Procedure: (§2) Tissue culture plates were pretreated with 25 μg/ml polyethyleneimine (Fluka, catalogue number P3143) in 150 mM NaCl for 20min to let cells adhere. JNN3 cells were subsequently plated and grown to 40-60% confluency in complete RPMI 1640 medium. HEK293 GLUT overexpressing cells were plated at 400,000 cells/ml overnight. Cells were then washed with glucose-free HEPES buffer twice and starved for 30 min. The uptake of 2-[^3H] deoxy-D-glucose (2-DOG) (50 μM) was measured in glucose-free HEPES buffer for 4-6 min at 37° C. Compound 20 (20 μM) was added 5-6 min prior to the addition of glucose depending on the specific assay. For the HEK293 GLUT overexpressing cells, non-specific uptake was measured in non-transfected HEK293 cells containing the shRNA GLUT1 knockdown and was subtracted from the experimental values. Data are plotted as percent uptake relative to unexposed HEK293 cultures. Data were normalized to fit by nonlinear regression analysis using GraphPad Prism software.
(§3) Compound 20 was further screened for GLUT4 selectivity by evaluating inhibition of glucose transport in HEK 293 cells exogenously over-expressing human GLUTs-1, -2, -3, -4, or -8 that also stably express GLUT1 shRNA (except the GLUT1 overexpressing cell line) to knock down endogenous GLUT1.
(§4) Glucose transport in HEK293 cells over-expressing GLUT1 or over-expressing GLUT4 or GLUT8 in cells lacking GLUT1 were used to evaluate inhibition of glucose transport. Cells were pre-treated with compound for 5 minutes followed by evaluation of […] uptake for 4 min at […]. Non-specific uptake was measured in nontransfected HEK293 cells containing the shRNA GLUT1 knockdown and was subtracted from the experimental values.

[2] = test system: follower lung cancer cell; assay: Follower lung cancer cell invasion; format: cell-based; conditions: FIG. 7
L363 cells = assay: Cell death with ABT-199 co-treatment in L363 cells (AnnexinV/DAPI); format: cell-based; conditions: 10 μM with 0.025 μM-3 μM ABT-199, 72 hours
Procedure: Compound 20 decreasing MCL-1 expression and sensitizing MM cell lines to Venetoclax (ABT-199),
(§5) Cell death was evaluated by AnnexinV/DAPI flow cytometric staining.
IC50 studies were performed using the CellTiter-Glo assay (Promega, Madison, Wis.). 20,000 cells in 100 ul complete RPMI 1640 medium were plated per well in 96-well plates, with a concentration range of individual compounds. After 72 h incubation, 100 uL Glo reagent were added to each well and luminescence was measured using a Biotek Synergy 4 multimode plate reader. Cell number was assessed by trypan blue standing and an automatic cell counter (Biorad). For cell viability assays 0.125×10^6 cells/mL were treated with the indicated concentration of drug, washed with 1×PBS and evaluated for viability by AnnexinV/DAPI staining and flow cytometry. […]
(§6) KD of GLUT4 and glucose deprivation lead to variable suppression of the pro-survival anti-apoptotic protein MCL-1. […] Compound 20 was evaluated for sensitizing MM patient samples to ABT-199. CD38+/CD45− gated myeloma cells from myeloma patient bone marrow aspirates were evaluated for viability after 48 hrs of treatment. […] To rule out the cytotoxic effect of co-treatment of compound 20 with either ABT-199 or dexamethasone on other non-myeloma cell populations, cell viability of CD38−/CD45− and CD38−/CD45+ cells were analyzed within the MM patient sample bone marrow aspirate (FIG. 6G). […]

[3] = test system: JJN3 cells expressing GLUT4 shRNA; assay: Viability/proliferation of JJN3 cells with GLUT4 shRNA (trypan blue, cell counter); format: cell-based; conditions: 15 μM, 72 hours
Procedure: (§7) IC50 studies were performed using the CellTiter-Glo assay (Promega, Madison, Wis.). 20,000 cells in 100 ul complete RPMI 1640 medium were plated per well in 96-well plates, with a concentration range of individual compounds. After 72 h incubation, 100 uL Glo reagent were added to each well and luminescence was measured using a Biotek Synergy 4 multimode plate reader. Cell number was assessed by trypan blue standing and an automatic cell counter (Biorad). For cell viability assays 0.125×10^6 cells/mL were treated with the indicated concentration of drug, washed with 1×PBS and evaluated for viability by AnnexinV/DAPI staining and flow cytometry. Data analysis was per-formed with the FCS express version 3 (De Novo software, Los Angeles).
(§8) Impact of compound 20 was evaluated on glucose uptake in MM cells.

JJN3 cells [4] = assay: Cell death with ABT-199 co-treatment in JJN3 cells (AnnexinV/DAPI); format: cell-based; conditions: co-treatment with ABT-199
Procedure: as §5, §7, §6

KMS11-GFP cells = assay: Proliferation of KMS11-GFP myeloma cells (Cell Titre Glo); format: cell-based
Procedure: as §7
(§9) Compound were selected as a lead based on its low IC50, selectivity for inhibition of glucose transport through GLUT4, and inhibition of the KMS11-GFP cell line proliferation in contrast to the GLUT1 expressing isogenic line. Compounds were assessed in a high-throughput proliferation-based assay using an isogenic MM (KMS11) cell line pair overexpressing GLUT1 or GFP (as a control) (model of screen is depicted in FIG. 2A). […] Isogenic KMS11-GFP/GLUT1 overexpressing myeloma cell lines were treated with a dose range of the indicated test compound for 72 hours followed by evaluation of viable cell number by Cell Titre Glo assay

JJN3 cells [5] = assay: 2-[3H]deoxyglucose uptake in JJN3 cells; format: cell-based; conditions: 20 μM, 6 min pre-treatment, 6 min uptake at 37 degrees C; compared with GLUT4 shRNA
Procedure: as §2, §8

[6] = test system: CD38-/CD45- and CD38-/CD45+ cells; assay: Viability of normal non-myeloma cell populations in MM patient bone marrow aspirate; format: cell-based; conditions: in combination with either ABT-199 or Dex
Description: Data from patient #6 is representative of patient samples evaluated.
as §1, with “tested. Compound 20 treated MM.1S cells were exposed to a dose range of Dex (0.00195 μM to 1 μM) for 72 hr (FIG. 6E).” for “tested.”

KMS11 cells = assay: Cell viability by AnnexinV/DAPI staining and flow cytometry in KMS11 cells; format: cell-based; conditions: compared with compounds 8, 9, 17
Procedure: as §7
They were selected and their effect on cell viability evaluated by AnnexinV/DAPI staining and flow cytometric analysis.

MCL-1 = assay: Immunoblot of MCL-1 expression in MM cells; format: cell-based; conditions: L363 cells vs JJN3, 15 μM for 18 hours
FAK = FAK activation, scratch assay; format: cell-based; conditions: FIG. 8
MM.1S cells = assay: Cell death with dexamethasone or melphalan co-treatment in MM.1S cells (AnnexinV/DAPI); format: cell-based; conditions: 72 hr
Procedure: as §5, §7, §6

KMS11-GLUT1 cells = assay: Proliferation of KMS11-GLUT1 myeloma cells (Cell Titre Glo); format: cell-based; conditions: inhibition of proliferation, 72 hours
Procedure: as §7, §9

GLUT8 = target: T2, GLUT8 (Homo sapiens, UniProt Q9NY64); assay: 2-DOG transport in HEK293 cells over-expressing GLUT8; format: cell-based; conditions: pre-treated 5 minutes, 2-DOG uptake 4 min; cells lacking GLUT1; read-out: IC50 (inhibition of 2-DOG transport in HEK cells over-expressing GLUT isoforms) GLUT8
T2 construct: expressed in transfected cells; host or cells: HEK293 stably expressing GLUT1 shRNA
T2 sequence (Q9NY64 1-477): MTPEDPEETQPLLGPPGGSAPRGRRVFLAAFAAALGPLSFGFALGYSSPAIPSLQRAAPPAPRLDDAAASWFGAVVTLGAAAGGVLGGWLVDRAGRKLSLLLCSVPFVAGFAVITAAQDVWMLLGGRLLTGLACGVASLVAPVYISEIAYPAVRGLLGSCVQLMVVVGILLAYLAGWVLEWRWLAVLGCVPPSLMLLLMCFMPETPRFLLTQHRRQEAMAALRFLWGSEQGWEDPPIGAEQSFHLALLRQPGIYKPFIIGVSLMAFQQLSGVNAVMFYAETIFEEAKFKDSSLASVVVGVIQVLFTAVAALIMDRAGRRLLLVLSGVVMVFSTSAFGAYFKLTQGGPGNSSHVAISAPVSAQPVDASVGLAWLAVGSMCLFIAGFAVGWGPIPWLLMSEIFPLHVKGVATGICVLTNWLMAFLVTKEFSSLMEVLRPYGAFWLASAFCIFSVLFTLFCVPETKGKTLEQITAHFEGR
Procedure: as §2, §3, §4

H1299 cell = H1299 cell invasion; format: cell-based, human; conditions: FIG. 9

COc1ccc(CC(=O)N(Cc2ccncc2)Cc2cccc(OCCc3ccc(F)cc3)c2)cc1 [Compound 20, N-(3-(4-fluorophenethoxy)benzyl)-2-(4-methoxyphenyl)-N-(pyridin-4-ylmethyl)acetamide]
sensitization of MM patient samples to combination with dexamethasone ([1]; 0.5 μM dexamethasone and 10 μM compound 20, 48 hr): sensitized | relapse/refractory patient samples with greater apoptosis on co-treatment with ABT-199 than either drug alone ([1]; 10 μM with 0.5 μM ABT-199, 48 hrs): 4 of 7 | selectivity of glucose transport inhibition among human GLUTs-1, -2, -3, -4, -8 (GLUT4; HEK 293 cells over-expressing human GLUTs, 4 minute uptake of 2-DOG): selective for GLUT4 over GLUTs 1, 2, 3 and 8 | IC50 (GLUT4): 18.2 µM | follower lung cancer cell invasion [2]: inhibits follower lung cancer cell invasion | sensitivity to ABT-199, L363 cell line (L363 cells): increased sensitivity to ABT-199 | viable cell counts in GLUT4 knockdown cells [3]: no further reduction | sensitivity to ABT-199, JJN3 cell line (JJN3 cells [4]): increased sensitivity to ABT-199 | EC50 (KMS11-GFP cells; inhibition of proliferation, 72 hours, Cell Titre Glo): 13.4 µM | impact on proliferation in KMS11-GFP cells compared with KMS11-GLUT1 cells (KMS11-GFP cells; isogenic cell line pair): greater impact on proliferation in KMS11-GFP cells | 2-DOG uptake in JJN3 cells (JJN3 cells [5]): effectively reduced | viability of normal non-myeloma cell populations [6]: did not impact the viability | cell death in KMS11 cells (KMS11 cells): greater cell death | MCL-1 expression (MCL-1): significantly reduced | FAK activation (FAK): inhibits FAK activation | sensitization to melphalan (Mel) (MM.1S cells; 10 μM with 0.01 μM-4 μM melphalan): sensitize | sensitization to dexamethasone (Dex), cell death in MM.1S (MM.1S cells; 10 μM with Dex 0.00195 μM to 1 μM): significant sensitization and cell death | EC50 (KMS11-GLUT1 cells): 21.8 µM

COc1ccc(C(=O)N(Cc2ccncc2)Cc2cccc(OCCc3ccc(F)cc3)c2)cc1 [Compound 26]
IC50 (GLUT4): 3.5 µM | IC50 (GLUT8): 6 µM | H1299 cell invasion (H1299 cell): inhibits H1299 cell invasion
